In patent US10722530B2, “Methods of diagnosing and treating cancer” (CASE WESTERN RESERVE UNIVERSITY, priority 2016, dated 2020):

Key:
[1] = tested on: HEC1A endometrial cancer cells; experiment: Colony survival assay, shSCR and shUDG cells; type: cell-based, human
Method: UDG knockdown was performed via shRNA transduction with validated clone from Sigma-Aldrich. The ID of UDG shRNA clone is NM_003362.2-656s21c1. A non-targeted scramble control shRNA clone (Sigma-Aldrich) was also used. Transfection of shRNA clones was performed according to manufacturer's specifications from Lipofectamine 2000 (Invitrogen). Lentiviral particles were produced via HEK293 cells, and targeted cells were infected and selected with puromycin. The stable UDG knockdown levels were verified for q-PCR and western blot analysis.
DLD1 (200 cells/well) or HEC1A (300 cells/well) cells were plated in 6-well culture dishes and allowed to adhere for 16 h. Cells were treated with drug for 24 h, gently washed twice with 1×PBS, and incubated with fresh media for at least 10 days to allow individual colonies to form. Colonies were stained with methylene blue, and only colonies containing ≥50 cells were counted. The percentage of survival was determined relative to untreated control averaged over 3 independent experiments.

[2] = tested on: cleaved PARP in HCT116 p53 WT cells; experiment: Western blot of apoptotic proteins; type: cell-based, human; details: shSCR and shUDG, 25 nM 5-FdU 24 h
Method: (§1) Western blots were performed as previously described Yan et al., Clinical Cancer Research. 2007; 13(5):1532-9. Twenty microgram of protein was loaded on SDS-polyacrylamide gel. The following antibodies were used to detect proteins on the membrane: α-Tubulin (Calbiochem); GAPDH (Santa Cruz Biotechnology); UDG (FL-313) (Santa Cruz Biotechnology); cleaved PARP (Asp214)(19F4) (Cell Signaling); cleaved caspase 3 (Cell Signaling); p53 (FL-393) (Santa Cruz Biotechnology); and p21 (Santa Cruz Biotechnology). For quantitative RT-PCR, total RNA from cells was extracted by using RNeasy Plus Mini Kit (Qiagen). cDNA synthesis was performed by using SuperScript III First Strand Kit (Life Technologies).

[3] = tested on: cleaved PARP or activated caspase 3 in HCT116 p53 KO cells; experiment: Western blot of apoptotic proteins; type: cell-based, human
Method: as §1

A2780 = experiment: Clonogenic survival assay; type: cell-based; details: Homo sapiens; A2780 (p53 wt), 24 h treatment, colonies after at least 10 days
Method: (§3) Cancer cells (200-300 cells/well) were seeded in 6-well culture dishes and allowed to adhere overnight. For 5-FdU, cells were treated for 24 h, then gently washed with PBS, and incubated with fresh media for at least 10 days to allow individual colonies to form. […] After 10-18 days, the plates were stained with methylene blue. Colonies containing ≥50 cells were counted. The percentage of survival was determined relative to untreated control averaged over 3 independent experiments.

DLD1 cells = experiment: DNA fiber assay (replication fork progression); type: cell-based, human; details: 100 nM 5-FdU 24 h; for reduction of mean fiber length: vs untreated
Method: DNA fiber analysis was performed as described by Han et al. (J. Biol. (2015) 290:12370-8). Cells treated with 100 nM 5-FdU for 24 h were pulse-labeled with 100 μM chlorodeoxyuridine (CIdU) for 20 minutes, washed with PBS, and 25 μM Iododeoxyuridine (IdU) for 20 minutes. Cells were collected in PBS, and 2.5 μL of cell suspension was dropped on glass slide. 7.5 μL of lysis buffer (0.5% SDS, 200 mM Tris-HCl pH 7.4, 50 mM EDTA) was dropped on the cell suspension and lysis for 10 minutes. Slides were then tilted at 15° to spread the suspension and placed horizontally to allow air-dry. After drying, slides were fixed in 3:1 methanol:acetic acid for 15 minutes, washed with water, and placed at −20° C. overnight. Slides were then treated with 2.5 M HCl for 1 h, washed with PBS containing 0.1% Tween-20, washed twice with PBS, blocked in PBS containing 5% BSA and 0.1% Tween 20 for 20 minutes, and rinsed with PBS three times. After washing, 100 μL primary antibodies: mouse anti-BrdU/IdU (Becton Dickinson, 1:100) and rat anti-BrdU/CIdU (AbD Serotec, 1:400) diluted in PBS containing 5% BSA and 0.1% were added to incubate in a humid chamber for 4-6 h. After incubation, slides were washed with PBS three times, incubated with secondary fluorescent antibodies: sheep anti-mouse Alexa Fluor 488 (Life technologies) and donkey anti-rat Alexa Fluor 594 (Life technologies) diluted in PBS containing 5% BSA for 1 h. Slides were washed with PBS three times and mounted with Vectashield mounting medium. Image acquisition was performed on a Leica laser microscope. DNA fiber length was measured by using ImageJ software (NCl/NIH).

HCT116 p53 KO cells = experiment: Flow cytometric assay of apoptosis (Annexin V/PI); type: cell-based, human; details: 25 nM 5-FdU 24 h
Method: (§2) Cells were seeded in 6-well tissue culture plates (1.5×10^5 cells/well) and allowed to attach overnight. Cells were then treated with 25 nM 5-FdU for 24 h, washed twice with PBS, replenished with drug-free medium at 48, 72, and 96 h. After recovery, the cells floating in the medium were collected. The adherent cells were trypsinized, pelleted, washed in ice-cold PBS, and resuspended in 1× Binding Buffer according to the manufacturer's instructions (FITC Annexin V Apoptosis Detection Kit, BD Pharmingen). Cells were then stained with FITC Annexin V and PI for 15 minutes at room temperature in the dark. Annexin V-FITC detects translocation of […] from the inner to the out cell membrane during early apoptosis, and PI can enter the cells in late apoptosis or necrosis. Untreated cells were used as control for the double staining. The cells were analyzed immediately after staining using a Attune NXT instrument and FlowJo software. For each measurement, at least 20,000 cells were counted.

HCT116 p53 WT cells = experiment: Flow cytometric assay of apoptosis (Annexin V/PI); type: cell-based, human; details: 25 nM 5-FdU 24 h, at 48 h, both UDG expressing and UDG depleted cells
Method: as §2

A375 = experiment: Clonogenic survival assay; type: cell-based; details: Homo sapiens, A-375; A375 (p53 wt), 24 h treatment, colonies after at least 10 days
Method: as §3

[4] = tested on: p53 mutant or deficient lines; experiment: Clonogenic survival assay, panel of p53 mutant or deficient lines; details: for resistance compared with p53 WT cells: cell lines with p53 mutation or deficiency vs p53 WT; for effect of UDG depletion on cytotoxicity: shUDG vs shSCR, p53 mutant or deficient cells
From the text: p53 or UDG knockdown was achieved via shRNA transduction. Lentiviral vectors LV-THM-shp53 (which also expresses a GFP reporter) or LV-Bleo-shp53 to perform p53 KD in WT HCT116 cells were obtained from Case Western Reserve University, Cleveland, Ohio Lentiviral vector targeting GFP (sh-GFP) was used as control. UDG shRNA vectors (shUDG: NM_003362.2-656s21c1, shUDG-2: NM_003362.2-758s21c1, and shUDG-3: NM_003362.2-893s21c1) were purchased from Sigma, and a scramble targeting shRNA vector (Sigma) was used as paired control. The lentiviral production and infection were performed as previously described. Cells stably infected with LV-THM-p53 were isolated by cell sorting on the basis of their GFP expression.
as §3

Method for DLD1 colon cancer cells: UDG knockdown was performed via shRNA transduction with validated clone from Sigma-Aldrich. […] A non-targeted scramble control shRNA clone (Sigma-Aldrich) was also used. Transfection of shRNA clones was performed according to manufacturer's specifications from Lipofectamine 2000 (Invitrogen). Lentiviral particles were produced via HEK293 cells, and targeted cells were infected and selected with puromycin. The stable UDG knockdown levels were verified for q-PCR and western blot analysis.
Colonies were stained with methylene blue, and only colonies containing ≥50 cells were counted. The percentage of survival was determined relative to untreated control averaged over 3 independent experiments.

O=c1[nH]c(=O)n([C@H]2C[C@H](O)[C@@H](CO)O2)cc1F [5-FdU, 5-fluorodeoxyuridine]
cell survival in shSCR-transfected cells ([1]; HEC1A shSCR, high concentrations): moderate loss of cell viability | effect of UDG depletion on drug sensitivity ([1]; HEC1A shUDG vs shSCR): highly sensitized | expression of cleaved PARP [2]: induced at 48 h | induction of cleaved PARP or activated caspase 3 ([3]; p53 KO cells depleted of UDG, 48 h to 96 h): robustly induced | induction of cleaved PARP or activated caspase 3 ([3]; p53 KO cells expressing UDG, 25 nM 5-FdU 24 h): not detected | IC50 (A2780): 1.32 ± 0.33 nM | mean fiber length of nascent DNA strands (DLD1 cells; UDG depleted cells): 2.8 μm | reduction of mean fiber length (DLD1 cells; UDG depleted cells): 63% | mean fiber length of nascent DNA strands (DLD1 cells; shSCR-transfected cells): 5.7 μm | reduction of mean fiber length (DLD1 cells; shSCR-transfected cells): 23% | cell death (Annexin V and PI positive) (HCT116 p53 KO cells; UDG depleted cells, 48 to 96 h): significantly elevated | cell death (Annexin V and PI positive) (HCT116 p53 KO cells; UDG expressing cells): significantly lower | cell death (Annexin V and PI positive) (HCT116 p53 WT cells): significant cell death | IC50 (A375): 111 ± 1.8 nM | resistance compared with p53 WT cells [4]: significantly more resistant | resistance compared with p53 WT cells ([4]; listed as 5FdU): relatively more resistant | IC50 ([4]; read-out: IC50 values, p53 mutant or deficient lines): > 100 nM | effect of UDG depletion on cytotoxicity [4]: selectively sensitized | effect of UDG depletion on cytotoxicity ([4]; listed as 5FdU): overcame this resistance | cell survival in shSCR-transfected cells (DLD1 colon cancer cells; DLD1 shSCR, high concentrations): moderate loss of cell viability | effect of UDG depletion on drug sensitivity (DLD1 colon cancer cells; DLD1 shUDG vs shSCR): highly sensitized
